The source of these data is patent US9150577B2, “Heterocyclic compounds containing an indole core” (Boehringer Ingelheim International GmbH, priority 2009, dated 2015).

In the assay the target is Human RSK2 (Homo sapiens (Human), UniProt P51812). Nature of the assay: Human RSK2 assay (Kinase Glo Plus, residual ATP).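 Note: recombinant human RSK2 phosphorylating a substrate peptide, 90 min at 28 °C, leftover ATP read by luminescence, RLU scaled between no-kinase background and uninhibited kinase controls, 4-parameter fit.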 The assay is classed as biochemical.
Human RSK2, sequence (P51812 whole entry): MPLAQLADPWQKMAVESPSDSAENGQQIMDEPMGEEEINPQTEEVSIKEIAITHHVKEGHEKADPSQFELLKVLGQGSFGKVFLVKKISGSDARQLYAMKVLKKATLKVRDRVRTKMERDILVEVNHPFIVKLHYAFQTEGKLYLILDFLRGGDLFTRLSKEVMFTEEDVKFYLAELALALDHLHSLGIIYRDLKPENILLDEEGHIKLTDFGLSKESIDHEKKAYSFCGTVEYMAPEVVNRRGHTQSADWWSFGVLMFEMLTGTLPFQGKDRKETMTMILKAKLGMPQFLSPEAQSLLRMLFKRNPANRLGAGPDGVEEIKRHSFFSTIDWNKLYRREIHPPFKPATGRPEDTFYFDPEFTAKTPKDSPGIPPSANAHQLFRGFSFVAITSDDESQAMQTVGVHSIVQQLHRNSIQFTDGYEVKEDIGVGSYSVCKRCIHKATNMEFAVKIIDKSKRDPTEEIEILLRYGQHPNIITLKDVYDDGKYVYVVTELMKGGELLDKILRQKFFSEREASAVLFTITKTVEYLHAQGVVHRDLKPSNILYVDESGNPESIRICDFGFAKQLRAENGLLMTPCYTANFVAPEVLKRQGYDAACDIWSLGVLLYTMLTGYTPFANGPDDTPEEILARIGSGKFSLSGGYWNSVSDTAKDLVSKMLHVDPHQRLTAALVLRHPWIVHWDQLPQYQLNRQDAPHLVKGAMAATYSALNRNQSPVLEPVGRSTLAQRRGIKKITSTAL

Take `CC(C)(C)n1c(NC(=O)c2ccc3cc4n(c3c2)CCCNC4=O)nc2ccccc21` [Example 65, N-(1-tert-butyl-1H-benzimidazol-2-yl)-1-oxo-2,3,4,5-tetrahydro-1H-[1,4]diazepino[1,2-a]indole-8-carboxamide]: the IC50 was 19 nM.

Consider `CC1CCNC(=O)c2cc3ccc(C(=O)Nc4ccccc4C(N)=O)cc3n21` (stereo not shown) [Example 222, N-(2-carbamoylphenyl)-5-methyl-1-oxo-2,3,4,5-tetrahydro-1H-[1,4]diazepino[1,2-a]indole-8-carboxamide], for which the IC50 came out at 11 nM.

For the compound `CC1(c2cc(NC(=O)c3ccc4cc5n(c4c3)CCCNC5=O)on2)CC1` [Example 197, N-[3-(1-methylcyclopropyl)-1,2-oxazol-5-yl]-1-oxo-2,3,4,5-tetrahydro-1H-[1,4]diazepino[1,2-a]indole-8-carboxamide], the IC50 was 27 nM.

Consider `O=C(Nc1cccc(-c2c[nH]cn2)c1)c1ccc2cc3n(c2c1)CCCNC3=O` [Example 226, N-[3-(1H-imidazol-4-yl)phenyl]-1-oxo-2,3,4,5-tetrahydro-1H-[1,4]diazepino[1,2-a]indole-8-carboxamide], for which the IC50 was 52 nM.

In the case of `CC(C)c1cc(NC(=O)c2ccc3cc4n(c3c2)CCCNC4=O)no1` [Example 213, 1-oxo-N-[5-(propan-2-yl)-1,2-oxazol-3-yl]-2,3,4,5-tetrahydro-1H-[1,4]diazepino[1,2-a]indole-8-carboxamide], the concentration for half-maximal inhibition (IC50) was found to be 66 nM.

In the case of `CC(C)c1ccc(NC(=O)c2ccc3cc4n(c3c2)CCCNC4=O)cc1` [Example 146, 1-oxo-N-[4-(propan-2-yl)phenyl]-2,3,4,5-tetrahydro-1H-[1,4]diazepino[1,2-a]indole-8-carboxamide], the IC50 is 89 nM.

On to `CC1CNC(=O)c2cc3ccc(C(=O)Nc4cnn(C)c4)cc3n21` (stereo not shown) [Example 22, 4-methyl-N-(1-methyl-1H-pyrazol-4-yl)-1-oxo-1,2,3,4-tetrahydropyrazino[1,2-a]indole-7-carboxamide], for which the IC50 stood at 5.1 nM.

In the case of `O=C(Nc1nc2cc(Cl)ccc2[nH]1)c1ccc2cc3n(c2c1)CCCNC3=O` [Example 47, N-(5-chloro-1H-benzimidazol-2-yl)-1-oxo-2,3,4,5-tetrahydro-1H-[1,4]diazepino[1,2-a]indole-8-carboxamide], the IC50 turned out to be 8 nM.

For `CC(C)(C)c1cc(NC(=O)c2ccc3cc4n(c3c2)CCCNC4=O)sn1` [Example 3, N-(3-tert-butyl-1,2-thiazol-5-yl)-1-oxo-2,3,4,5-tetrahydro-1H-[1,4]diazepino[1,2-a]indole-8-carboxamide], the IC50 was determined as 240 nM.

Consider `CC1CCNC(=O)c2cc3ccc(C(=O)Nc4cn(C)c(C(=O)NC5CCCC5)n4)cc3n21` (stereo not shown) [Example 234, N-[2-(cyclopentylcarbamoyl)-1-methyl-1H-imidazol-4-yl]-5-methyl-1-oxo-2,3,4,5-tetrahydro-1H-[1,4]diazepino[1,2-a]indole-8-carboxamide], for which the 50% inhibitory concentration (IC50) is 2.1 nM.

On to `CC1CNC(=O)c2cc3ccc(C(=O)Nc4nc5ccccc5n4CCCN(C)C)cc3n2C1` (stereo not shown) [Example 101, N-{1-[3-(dimethylamino)propyl]-1H-benzimidazol-2-yl}-4-methyl-1-oxo-2,3,4,5-tetrahydro-1H-[1,4]diazepino[1,2-a]indole-8-carboxamide], for which the IC50 was found to be 13 nM.

As for `CC1CNC(=O)c2cc3ccc(C(=O)Nc4nc5ccccc5n4C)cc3n21` (stereo not shown) [Example 61, 4-methyl-N-(1-methyl-1H-benzimidazol-2-yl)-1-oxo-1,2,3,4-tetrahydropyrazino[1,2-a]indole-7-carboxamide], the IC50 was 2.2 nM.

With `O=C(Nc1cnn(CCc2ccccc2)c1)c1ccc2cc3n(c2c1)CCCNC3=O` [Example 113, 1-oxo-N-[1-(2-phenylethyl)-1H-pyrazol-4-yl]-2,3,4,5-tetrahydro-1H-[1,4]diazepino[1,2-a]indole-8-carboxamide], the IC50 came to 17 nM.

On to `CC1(C)CNC(=O)c2cc3ccc(C(=O)Nc4cc(-c5ccccc5)no4)cc3n21` [Example 201, 4,4-dimethyl-1-oxo-N-(3-phenyl-1,2-oxazol-5-yl)-1,2,3,4-tetrahydropyrazino[1,2-a]indole-7-carboxamide], for which the IC50 came to 15 nM.

Take `C[C@@H]1NC(=O)c2cc3ccc(C(=O)Nc4cnn(Cc5ccccc5)c4)cc3n2[C@@H]1C` [Example 140, (3S,4R)-N-(1-benzyl-1H-pyrazol-4-yl)-3,4-dimethyl-1-oxo-1,2,3,4-tetrahydropyrazino[1,2-a]indole-7-carboxamide]: the 50% inhibitory concentration (IC50) turned out to be 0.42 nM.

As to `Cc1cc(NC(=O)c2ccc3cc4n(c3c2)CCCNC4=O)no1` [Example 2, N-(5-methyl-1,2-oxazol-3-yl)-1-oxo-2,3,4,5-tetrahydro-1H-[1,4]diazepino[1,2-a]indole-8-carboxamide], the IC50 is 30 nM.

For the compound `C[C@H]1NC(=O)c2cc3ccc(C(=O)Nc4cnn(C)c4)cc3n2[C@H]1C` (relative stereo) [Example 21, cis-3,4-dimethyl-N-(1-methyl-1H-pyrazol-4-yl)-1-oxo-1,2,3,4-tetrahydropyrazino[1,2-a]indole-7-carboxamide], the IC50 worked out at 4.3 nM.

Turning to `C[C@H]1NC(=O)c2cc3ccc(C(=O)Nc4cccnc4)cc3n2[C@H]1C` (relative stereo) [Example 179, Cis-3,4-dimethyl-1-oxo-N-(pyridin-3-yl)-1,2,3,4-tetrahydropyrazino[1,2-a]indole-7-carboxamide], the IC50 turned out to be 45 nM.

Consider `O=C(Nc1cnn(Cc2ccccc2)c1)c1ccc2cc3n(c2c1)CCCNC3=O` [Example 32, N-(1-benzyl-1H-pyrazol-4-yl)-1-oxo-2,3,4,5-tetrahydro-1H-[1,4]diazepino[1,2-a]indole-8-carboxamide], for which the IC50 amounted to 4 nM.

As for `Cn1c(NC(=O)c2ccc3cc4n(c3c2)CCCNC4=O)nc2ccc(Cl)cc21` [Example 52, N-(6-chloro-1-methyl-1H-benzimidazol-2-yl)-1-oxo-2,3,4,5-tetrahydro-1H-[1,4]diazepino[1,2-a]indole-8-carboxamide], the IC50 stood at 170 nM.

For the compound `O=C(Nc1ccc2scnc2c1)c1ccc2cc3n(c2c1)CCCNC3=O` [Example 203, N-(1,3-benzothiazol-5-yl)-1-oxo-2,3,4,5-tetrahydro-1H-[1,4]diazepino[1,2-a]indole-8-carboxamide], the IC50 came out at 180 nM.

Regarding `O=C(Nc1cc(-c2ccccc2)[nH]n1)c1ccc2cc3n(c2c1)CCCNC3=O` [Example 218, 1-oxo-N-(5-phenyl-1H-pyrazol-3-yl)-2,3,4,5-tetrahydro-1H-[1,4]diazepino[1,2-a]indole-8-carboxamide], the IC50 was 40 nM.

Consider `O=C(Nc1cnn(Cc2ccccc2)c1)c1ccc2cc3n(c2c1)CC1(CCC1)CNC3=O` [Example 138, N-(1-benzyl-1H-pyrazol-4-yl)-1′-oxo-2′,3′-dihydro-1′H-spiro[cyclobutane-1,4′-[1,4]diazepino[1,2-a]indole]-8′-carboxamide], for which the IC50 amounted to 26.5 nM.

In the case of `O=C(Nc1ncc[nH]1)c1ccc2cc3n(c2c1)CCCNC3=O` [Example 108, N-(1H-imidazol-2-yl)-1-oxo-2,3,4,5-tetrahydro-1H-[1,4]diazepino[1,2-a]indole-8-carboxamide], the IC50 came out at 25.5 nM.

As to `Cc1cc(NC(=O)c2ccc3cc4n(c3c2)[C@@H](C)[C@H](C)NC4=O)no1` (relative stereo) [Example 168, Trans-3,4-dimethyl-N-(5-methyl-1,2-oxazol-3-yl)-1-oxo-1,2,3,4-tetrahydropyrazino[1,2-a]indole-7-carboxamide], the IC50 was found to be 160 nM.

In the case of `C[C@H]1CNC(=O)c2cc3ccc(C(=O)Nc4nc5ccccc5n4CCCN(C)C)cc3n21` [Example 131, (4S)-N-{1-[3-(dimethylamino)propyl]-1H-benzimidazol-2-yl}-4-methyl-1-oxo-1,2,3,4-tetrahydropyrazino[1,2-a]indole-7-carboxamide], the IC50 amounted to 15 nM.

Consider `Cn1ncc2cc(NC(=O)c3ccc4cc5n(c4c3)CCCNC5=O)cnc21` [Example 20, N-(1-methyl-1H-pyrazolo[3,4-b]pyridin-5-yl)-1-oxo-2,3,4,5-tetrahydro-1H-[1,4]diazepino[1,2-a]indole-8-carboxamide], for which the IC50 came to 87 nM.

For `CS(=O)(=O)c1ccc2c(c1)nc(NC(=O)c1ccc3cc4n(c3c1)CCCNC4=O)n2CC(F)(F)F` [Example 118, N-[5-(methylsulfonyl)-1-(2,2,2-trifluoroethyl)-1H-benzimidazol-2-yl]-1-oxo-2,3,4,5-tetrahydro-1H-[1,4]diazepino[1,2-a]indole-8-carboxamide], the IC50 worked out at 18 nM.

For the compound `Cc1cc(NC(=O)c2ccc3cc4n(c3c2)CC2(CC2)CNC4=O)no1` [Example 127, N-(5-methyl-1,2-oxazol-3-yl)-1′-oxo-2′,3′-dihydro-1′H-spiro[cyclopropane-1,4′-[1,4]diazepino[1,2-a]indole]-8′-carboxamide], the IC50 is 145 nM.

For the compound `Cc1cc(NC(=O)c2ccc3cc4n(c3c2)[C@@H](C)[C@H](C)CNC4=O)no1` (relative stereo) [Example 169, Trans-4,5-dimethyl-N-(5-methyl-1,2-oxazol-3-yl)-1-oxo-2,3,4,5-tetrahydro-1H-[1,4]diazepino[1,2-a]indole-8-carboxamide], the IC50 was 570 nM.

In the case of `O=C(Nc1nc2ccccc2n1CC(F)(F)F)c1ccc2cc3n(c2c1)CCCNC3=O` [Example 87, 1-oxo-N-[1-(2,2,2-trifluoroethyl)-1H-benzimidazol-2-yl]-2,3,4,5-tetrahydro-1H-[1,4]diazepino[1,2-a]indole-8-carboxamide], the IC50 came out at 4.8 nM.

Take `N#Cc1ccccc1NC(=O)c1ccc2cc3n(c2c1)CCCNC3=O` [Example 217, N-(2-cyanophenyl)-1-oxo-2,3,4,5-tetrahydro-1H-[1,4]diazepino[1,2-a]indole-8-carboxamide]: the IC50 was found to be 7000 nM.

With `O=C(Nc1cccc(Cl)c1)c1ccc2cc3n(c2c1)CCCNC3=O` [Example 1, N-(3-chlorophenyl)-1-oxo-2,3,4,5-tetrahydro-1H-[1,4]diazepino[1,2-a]indole-8-carboxamide], the IC50 stood at 270 nM.

On to `CC(C)n1ccc(NC(=O)c2ccc3cc4n(c3c2)CCCNC4=O)n1` [Example 13, 1-oxo-N-[1-(propan-2-yl)-1H-pyrazol-3-yl]-2,3,4,5-tetrahydro-1H-[1,4]diazepino[1,2-a]indole-8-carboxamide], for which the IC50 came out at 1600 nM.
